Source: US3955959A, “Herbicide for use in transplanted rice” (priority 1974, dated 1976)

Experiments:
Type in all cases: in vivo
Cd (Cyperus difformis) = assay: Example 6 weed control, JAAPR, Japan
Experimental: (§1) In this example, the efficacy of Herbicide A is presented for a variety of weeds in the presence of ordinary and infant transplant rice. In this example, tests were conducted at the said JAAPR Lab at different times of the year. "Early season" transplants were made in April and "Normal season" transplants were made in July. The size of the transplants at the respective seasons were: Season Seedling Type Plant Height (cm) Leaf Stage ______________________________________ Early Ordinary 16.5 4.5 Early Infant 9.1 2.4 Normal Ordinary 41.7 5.3 Normal Infant 14.7 1.9 ______________________________________
(§2) Duplicate treatments were used. At the time of application of the herbicide, the status of the grass (EC) was as follows: […]

Cs (Cyperus serotinus) = assay: Example 6 weed control, JAAPR, Japan; details: Normal season
Experimental: as §1, §2

[1] = test system: Ea (Eleocharis acicularis); assay: Example 6 weed control, JAAPR, Japan
Experimental: as §1, §2

[2] = test system: Ec (Echinochloa crusgalli); assay: Example 6 weed control, JAAPR, Japan
Experimental: as §1, §2

Et (Elatine triandra) = assay: Example 6 weed control, JAAPR, Japan
Experimental: as §1, §2

[3] = test system: Obw (other broadleaf weeds); assay: Example 6 weed control, JAAPR, Japan; details: ordinary
Experimental: as §1, §2

Ri (Rotala indica) = assay: Example 6 weed control, JAAPR, Japan
Experimental: as §1, §2

[4] = test system: Brachiaria platyphylla, Digitaria spp, Echinochloa spp, Eleusine indica, Leptochloa spp and Setaria spp; assay: Weeds effectively treated to date: grasses
[5] = test system: Echinochloa crusgalli and Monochoria vaginalis; assay: Example 2 field test, overall
Text: Rice seedlings (ordinary) of Tainan No. 5 variety (japonica) were transplanted at 19 days of growth. Granular formulations of Herbicides A and B were applied at the 1 leaf stage of grass weed (4 DAT) and 2.5 leaf stage of grass weed (10 DAT).

[6] = test system: weeds in transplanted rice; assay: Example 6 overall
Experimental: as §1, §2

[7] = Early season, ordinary, 1.0 kg/ha, 3 DAT
[8] = Early season, ordinary, 1.0 kg/ha, 12 DAT
[9] = Early season, ordinary, 1.0 kg/ha, -2 DAT
[10] = Early season, ordinary, .5 kg/ha, 3 DAT
[11] = Early season, ordinary, .5 kg/ha, 12 DAT
[12] = Early season, ordinary, .5 kg/ha, -2 DAT
[13] = Normal season, infant, 1.0 kg/ha, 3 DAT
[14] = Normal season, infant, 1.0 kg/ha, 7 DAT
[15] = Normal season, infant, 1.0 kg/ha, -2 DAT
[16] = Normal season, infant, .5 kg/ha, 3 DAT
[17] = Normal season, infant, .5 kg/ha, 7 DAT
[18] = Normal season, infant, .5 kg/ha, -2 DAT
[19] = Normal season, ordinary, 1.0 kg/ha, 3 DAT
[20] = Normal season, ordinary, 1.0 kg/ha, 7 DAT
[21] = Normal season, ordinary, 1.0 kg/ha, -2 DAT
[22] = Normal season, ordinary, .5 kg/ha, 3 DAT
[23] = Normal season, ordinary, .5 kg/ha, 7 DAT
[24] = Normal season, ordinary, .5 kg/ha, -2 DAT

Structure (SMILES): CCCCOCN(C(=O)CCl)c1c(C)cccc1C(C)(C)C [Herbicide A, n-(butoxymethyl)-6'-tert-butyl-2-chloro-o-acetotoluidide]
- % Weed Control (Cd) (Cd (Cyperus difformis); [7]): 100%
- % Weed Control (Cd) (Cd (Cyperus difformis); [8]): 100%
- % Weed Control (Cd) (Cd (Cyperus difformis); [9]): 100%
- % Weed Control (Cd) (Cd (Cyperus difformis); [10]): 100%
- % Weed Control (Cd) (Cd (Cyperus difformis); [11]): 100%
- % Weed Control (Cd) (Cd (Cyperus difformis); [12]): 100%
- % Weed Control (Cd) (Cd (Cyperus difformis); [13]): 100%
- % Weed Control (Cd) (Cd (Cyperus difformis); [14]): 100%
- % Weed Control (Cd) (Cd (Cyperus difformis); [15]): 100%
- % Weed Control (Cd) (Cd (Cyperus difformis); [16]): 100%
- % Weed Control (Cd) (Cd (Cyperus difformis); [17]): 100%
- % Weed Control (Cd) (Cd (Cyperus difformis); [18]): 100%
- % Weed Control (Cd) (Cd (Cyperus difformis); [19]): 100%
- % Weed Control (Cd) (Cd (Cyperus difformis); [20]): 100%
- % Weed Control (Cd) (Cd (Cyperus difformis); [21]): 100%
- % Weed Control (Cd) (Cd (Cyperus difformis); [22]): 100%
- % Weed Control (Cd) (Cd (Cyperus difformis); [23]): 100%
- % Weed Control (Cd) (Cd (Cyperus difformis); [24]): 100%
- % Weed Control (Cs) (Cs (Cyperus serotinus); infant, 1.0 kg/ha, 3 DAT): 100%
- % Weed Control (Cs) (Cs (Cyperus serotinus); infant, 1.0 kg/ha, 7 DAT): 100%
- % Weed Control (Cs) (Cs (Cyperus serotinus); infant, 1.0 kg/ha, -2 DAT): 100%
- % Weed Control (Cs) (Cs (Cyperus serotinus); infant, .5 kg/ha, 3 DAT): 100%
- % Weed Control (Cs) (Cs (Cyperus serotinus); infant, .5 kg/ha, 7 DAT): 100%
- % Weed Control (Cs) (Cs (Cyperus serotinus); infant, .5 kg/ha, -2 DAT): 100%
- % Weed Control (Cs) (Cs (Cyperus serotinus); ordinary, 1.0 kg/ha, 3 DAT): 100%
- % Weed Control (Cs) (Cs (Cyperus serotinus); ordinary, 1.0 kg/ha, 7 DAT): 100%
- % Weed Control (Cs) (Cs (Cyperus serotinus); ordinary, 1.0 kg/ha, -2 DAT): 100%
- % Weed Control (Cs) (Cs (Cyperus serotinus); ordinary, .5 kg/ha, 3 DAT): 100%
- % Weed Control (Cs) (Cs (Cyperus serotinus); ordinary, .5 kg/ha, 7 DAT): 100%
- % Weed Control (Cs) (Cs (Cyperus serotinus); ordinary, .5 kg/ha, -2 DAT): 100%
- % Weed Control (Ea) [1, 7]: 100%
- % Weed Control (Ea) [1, 8]: 100%
- % Weed Control (Ea) [1, 9]: 100%
- % Weed Control (Ea) [1, 10]: 100%
- % Weed Control (Ea) [1, 11]: 100%
- % Weed Control (Ea) [1, 12]: 100%
- % Weed Control (Ea) [1, 13]: 100%
- % Weed Control (Ea) [1, 14]: 100%
- % Weed Control (Ea) [1, 15]: 100%
- % Weed Control (Ea) [1, 16]: 100%
- % Weed Control (Ea) [1, 17]: 100%
- % Weed Control (Ea) [1, 18]: 100%
- % Weed Control (Ea) [1, 19]: 100%
- % Weed Control (Ea) [1, 20]: 100%
- % Weed Control (Ea) [1, 21]: 100%
- % Weed Control (Ea) [1, 22]: 100%
- % Weed Control (Ea) [1, 23]: 100%
- % Weed Control (Ea) [1, 24]: 100%
- % Weed Control (Ec) [2, 7]: 100%
- % Weed Control (Ec) [2, 8]: 100%
- % Weed Control (Ec) [2, 9]: 100%
- % Weed Control (Ec) [2, 10]: 100%
- % Weed Control (Ec) [2, 11]: 100%
- % Weed Control (Ec) [2, 12]: 100%
- % Weed Control (Ec) [2, 13]: 100%
- % Weed Control (Ec) [2, 14]: 100%
- % Weed Control (Ec) [2, 15]: 100%
- % Weed Control (Ec) [2, 16]: 100%
- % Weed Control (Ec) [2, 17]: 100%
- % Weed Control (Ec) [2, 18]: 100%
- % Weed Control (Ec) [2, 19]: 100%
- % Weed Control (Ec) [2, 20]: 100%
- % Weed Control (Ec) [2, 21]: 100%
- % Weed Control (Ec) [2, 22]: 100%
- % Weed Control (Ec) [2, 23]: 95%
- % Weed Control (Ec) [2, 24]: 100%
- % Weed Control (Et) (Et (Elatine triandra); [7]): 95%
- % Weed Control (Et) (Et (Elatine triandra); [8]): 70%
- % Weed Control (Et) (Et (Elatine triandra); [9]): 95%
- % Weed Control (Et) (Et (Elatine triandra); [10]): 70%
- % Weed Control (Et) (Et (Elatine triandra); [11]): < 40%
- % Weed Control (Et) (Et (Elatine triandra); [12]): 95%
- % Weed Control (Et) (Et (Elatine triandra); [13]): 100%
- % Weed Control (Et) (Et (Elatine triandra); [14]): 100%
- % Weed Control (Et) (Et (Elatine triandra); [15]): 100%
- % Weed Control (Et) (Et (Elatine triandra); [16]): 100%
- % Weed Control (Et) (Et (Elatine triandra); [17]): 100%
- % Weed Control (Et) (Et (Elatine triandra); [18]): 100%
- % Weed Control (Et) (Et (Elatine triandra); [19]): 100%
- % Weed Control (Et) (Et (Elatine triandra); [20]): 100%
- % Weed Control (Et) (Et (Elatine triandra); [21]): 100%
- % Weed Control (Et) (Et (Elatine triandra); [22]): 100%
- % Weed Control (Et) (Et (Elatine triandra); [23]): 100%
- % Weed Control (Et) (Et (Elatine triandra); [24]): 100%
- % Weed Control (Obw) ([3]; Early season, 1.0 kg/ha, 3 DAT): 100%
- % Weed Control (Obw) ([3]; Early season, 1.0 kg/ha, 12 DAT): 50%
- % Weed Control (Obw) ([3]; Early season, 1.0 kg/ha, -2 DAT): 100%
- % Weed Control (Obw) ([3]; Early season, .5 kg/ha, 3 DAT): 100%
- % Weed Control (Obw) ([3]; Early season, .5 kg/ha, 12 DAT): 100%
- % Weed Control (Obw) ([3]; Early season, .5 kg/ha, -2 DAT): 100%
- % Weed Control (Obw) ([3]; Normal season, 1.0 kg/ha, 3 DAT): 100%
- % Weed Control (Obw) ([3]; Normal season, 1.0 kg/ha, 7 DAT): 100%
- % Weed Control (Obw) ([3]; Normal season, 1.0 kg/ha, -2 DAT): 100%
- % Weed Control (Obw) ([3]; Normal season, .5 kg/ha, 3 DAT): 100%
- % Weed Control (Obw) ([3]; Normal season, .5 kg/ha, 7 DAT): 100%
- % Weed Control (Obw) ([3]; Normal season, .5 kg/ha, -2 DAT): 100%
- % Weed Control (Ri) (Ri (Rotala indica); [7]): 100%
- % Weed Control (Ri) (Ri (Rotala indica); [8]): 100%
- % Weed Control (Ri) (Ri (Rotala indica); [9]): 100%
- % Weed Control (Ri) (Ri (Rotala indica); [10]): 100%
- % Weed Control (Ri) (Ri (Rotala indica); [11]): 100%
- % Weed Control (Ri) (Ri (Rotala indica); [12]): 100%
- % Weed Control (Ri) (Ri (Rotala indica); [13]): 100%
- % Weed Control (Ri) (Ri (Rotala indica); [14]): 100%
- % Weed Control (Ri) (Ri (Rotala indica); [15]): 100%
- % Weed Control (Ri) (Ri (Rotala indica); [16]): 100%
- % Weed Control (Ri) (Ri (Rotala indica); [17]): 100%
- % Weed Control (Ri) (Ri (Rotala indica); [18]): 100%
- % Weed Control (Ri) (Ri (Rotala indica); [19]): 100%
- % Weed Control (Ri) (Ri (Rotala indica); [20]): 100%
- % Weed Control (Ri) (Ri (Rotala indica); [21]): 100%
- % Weed Control (Ri) (Ri (Rotala indica); [22]): 100%
- % Weed Control (Ri) (Ri (Rotala indica); [23]): 100%
- % Weed Control (Ri) (Ri (Rotala indica); [24]): 100%
- effectively treated grasses [4]: effectively treated
- period of application vs Herbicide B ([5]; Example 2): could be applied over a longer period of time
- fold more active than Herbicide B ([5]; control of Echinochloa crusgalli and Monochoria vaginalis): 3-6 fold
- weed control in words ([6]; all weeds except Sagittaria (Sp)): very effective
- toxicity to weeds and rice, normal vs early season ([6]; normal season vs early season): slightly more toxic to both weeds and rice
- efficacious application period ([6]; relative to transplanting): from 2 days before transplanting to 12 DAT
